# Assay results reported in patent US9487504B2, “Imidazolyl analogs as syk inhibitors” (Merck Sharp & Dohme Corp., priority 2012, dated 2016).
# Like-named read-outs stand apart in the source and are kept apart here.
# Target: T1, recombinant human GST-Syk (Homo sapiens, UniProt P43405)
# T1 construct: purchased Carna Biosciences 08-176
# Assay: Homogeneous Time-Resolved Fluorescence (HTRF) assay for the recombinant human Syk enzyme
# Format: biochemical
# Settings: ATP 25 μM, 10-dose titration
# Method: Syk inhibition may be determined using the following assay protocol:
# Homogeneous Time-Resolved Fluorescence (HTRF) Assay for the Recombinant Human Syk Enzyme:
# A recombinant GST-hSyk fusion protein was used to measure potency of compounds to inhibit human Syk activity. The recombinant human GST-Syk (Carna Biosciences #08-176) ([…]) was incubated with various concentrations of the inhibitor diluted in DMSO (0.1% final concentration) for 10 minutes at room temperature in 15 mM Tris-HCl (pH 7.5), 0.01% tween 20, 2 mM DTT in 384 well plate format. To initiate the reaction the biotinylated substrate peptide (250 nM final concentration) that contains the phosphorylation site for Syk was added with magnesium (5 mM final concentration) and ATP (25 μM final concentration). Final volume of the reaction was 10 μL. Phosphorylation of the peptide was allowed to proceed for 45 minutes at room temperature. To quench the reaction and detect the phosphorylated product, 2 nM of a Europium-anti-phosphotyrosine antibody (Perkin Elmer #AD0161) and 70 nM SA-APC (Perkin-Elmer #CR130-100) were added together in 15 mM Tris pH 7.5, 40 mM EDTA, 0.01% tween 20. Final volume of the quenching solution was 10 μL. The resulting HTRF signal was measured after 30 minutes on an EnVision (Perkin-Elmer) reader using a time-resolved fluorescence protocol. IC50 was determined following 10-dose titration (10 μM to 0.508 nM) and four parameter logistic curve fitting using the Merck Assay Data Analyzer. The rhSyk activity (IC50) is expressed as +++ (100 nM or less), ++ (between 100 and 1000 nM), + (between 1 and 10 μM).
SMILES,IC50 (read-out: rhSYK Activity),IC50 (read-out: rhSYK IC50)
"CCOC(=O)C1(C)CC=C(c2cn(-c3cc(C)cc(Nc4nccc(C(F)(F)F)n4)c3)cn2)CC1 (racemic) [Example 19, Ethyl 1-methyl-4-[1-(3-methyl-5-{[4-(trifluoromethyl)-pyrimidin-2-yl]amino}-phenyl)-1H-imidazol-4-yl]cyclohex-3-ene-1-carboxylate]",100 to 1000 nM,–
"Cc1cc(Nc2nccc(C(F)(F)F)n2)cc(-n2cnc(C3=CCC(C)(C(=O)O)CC3)c2)c1 (racemic) [Example 21, 1-methyl-4-[1-(3-methyl-5-{[4-(trifluoromethyl)-pyrimidin-2-yl]amino}-phenyl)-1H-imidazol-4-yl]cyclohex-3-ene-1-carboxylic acid]",≤ 100 nM,–
"Cc1cc(Nc2nccc(C(F)(F)F)n2)cc(-n2cnc(C3(O)CCC(C(=O)O)C(C)(C)C3)c2)c1 (racemic) [Example 25, 4-hydroxy-2,2-dimethyl-4-[1-(3-methyl-5-{[4-(trifluoromethyl)pyrimidin-2-yl]amino}phenyl)-1H-imidazol-4-yl]-cyclohexanecarboxylic acid]",≤ 100 nM,–
"Cc1cc(Nc2nccc(C(F)(F)F)n2)cc(-n2cnc(C(C)(O)CO)c2)c1 (racemic) [Example 113, (rac)-2-[1-(3-Methyl-5-{[4-(trifluoromethyl)pyrimidin-2-yl]amino}phenyl)-1H-imidazol-4-yl]propane-1,2-diol]",≤ 100 nM,–
"Cc1cc(Nc2nccc(C(F)(F)F)n2)cc(-n2cnc(C(C)(O)[C@H]3CC[C@H](C(N)=O)CC3)c2)c1 (relative stereo) [Example 7, trans-4-{1-hydroxy-1-[1-(3-methyl-5-{[4-(trifluoromethyl)pyrimidin-2-yl]amino}phenyl)-1H-imidazol-4-yl]ethyl]cyclohexanecarboxamide]",≤ 100 nM,–
"Cc1cc(Nc2nccc(C)n2)cc(-n2cnc(C(C)(O)[C@H]3CC[C@H](C(=O)O)CC3)c2)c1 (relative stereo) [Example 9, trans-4-[1-hydroxy-1-(1-{3-methyl-5-[(4-methyl-pyrimidin-2-yl)amino]-phenyl}-1H-imidazol-4-yl)ethyl]cyclohexane-carboxylic acid]",≤ 100 nM,15 nM
"Cc1cc(Nc2nccc(C(F)(F)F)n2)cc(-n2cnc(C(C)(O)[C@H]3CC[C@H](C(=O)O)CC3)c2)c1 (relative stereo) [Example 10, trans-4-{1-hydroxy-1-[1-(3-methyl-5-{[4-(trifluoromethyl)pyrimidin-2-yl]amino}phenyl)-1H-imidazol-4-yl]ethyl}-cyclohexanecarboxylic acid]",≤ 100 nM,1.78 nM
"CCCCOC(=O)[C@H]1CC[C@H](C(C)(O)c2cn(-c3cc(C)cc(Nc4nccc(C)n4)c3)cn2)CC1 (relative stereo) [Example 11, Butyl trans-4-[1-hydroxy-1-(1-{3-methyl-5-[(4-methylpyrimidin-2-yl)amino]phenyl}-1H-imidazol-4-yl)ethyl]-cyclohexanecarboxylate]",100 to 1000 nM,–
"CCCCOC(=O)[C@H]1CC[C@H](C(C)(O)c2cn(-c3cc(C)cc(Nc4nccc(C(F)(F)F)n4)c3)cn2)CC1 (relative stereo) [Example 12, Butyl trans-4-{1-hydroxy-1-[1-(3-methyl-5-[(4-(trifluoromethyl)-pyrimidin-2-yl]amino}-phenyl)-1H-imidazol-4-yl]ethyl}cyclohexane-carboxylate]",100 to 1000 nM,–
"Cc1cc(Nc2nccc(C(F)(F)F)n2)cc(-n2cnc([C@@]3(O)CC[C@@](C)(C(=O)O)C[C@@H]3O)c2)c1 (single isomer, unassigned) [5 (isomer 1)]",≤ 100 nM,–
"Cc1cc(Nc2nccc(C(F)(F)F)n2)cc(-n2cnc([C@]3(O)CC[C@@](C)(C(=O)O)C[C@H]3O)c2)c1 (single isomer, unassigned) [5 (isomer 2)]",≤ 100 nM,–
"CCOC(=O)C1CCC(O)(c2cn(-c3cc(C)cc(Nc4nccc(C(F)(F)F)n4)c3)cn2)CC1 (centres unmarked) [1, Step 1]",–,12.7 nM
"Cc1cc(Nc2nccc(C(F)(F)F)n2)cc(-n2cnc([C@H]3CC[C@@H](C(=O)O)CC3)c2)c1 [2 (cis), Cis-4-[1-(3-methyl-5-{[4-(trifluoromethyl)pyrimidin-2-yl]amino}phenyl)-1H-imidazol-4-yl]cyclohexanecarboxylic acid]",≤ 100 nM,12.5 nM
"Cc1cc(Nc2nccc(C(F)(F)F)n2)cc(-n2cnc([C@H]3CC[C@H](C(=O)O)CC3)c2)c1 [2 (trans), Trans-4-[1-(3-methyl-5-{[4-(trifluoromethyl)pyrimidin-2-yl]amino}phenyl)-1H-imidazol-4-yl]cyclohexanecarboxylic acid]",≤ 100 nM,1.2 nM
"CNC(=O)[C@H]1CC[C@](O)(c2cn(-c3cc(C)cc(Nc4nccc(C(F)(F)F)n4)c3)cn2)CC1 [Example 1, Cis-4-hydroxy-N-methyl-4-[1-(3-methyl-5-{[4-(trifluoromethyl)pyrimidin-2-yl]amino}phenyl)-1H-imidazol-4-yl]cyclohexanecarboxamide]",≤ 100 nM,6.1 nM
"Cc1cc(Nc2nccc(C(F)(F)F)n2)cc(-n2cnc(C3=CCC(C(=O)O)CC3)c2)c1 (centres unmarked) [Example 3, 4-[1-(3-methyl-5-{[4-(trifluoromethyl)pyrimidin-2-yl]amino}phenyl)-1H-imidazol-4-yl]cyclohex-3-ene-1-carboxylic acid]",≤ 100 nM,–
"Cc1cc(Nc2nccc(C(F)(F)F)n2)cc(-n2cnc(C3=CCC(C(=O)O)C(C)(C)C3)c2)c1 (centres unmarked) [Example 4, 6,6-Dimethyl-4-[1-(3-methyl-5-{[4-(trifluoromethyl)pyrimidin-2-yl]amino}phenyl)-1H-imidazol-4-yl]cyclohex-3-ene-1-carboxylic acid]",≤ 100 nM,0.9 nM
"Cc1cc(Nc2nccc(C(F)(F)F)n2)cc(-n2cnc(C3(O)CCC(CC(N)=O)CC3)c2)c1 (stereo not drawn) [Example 6, 2-{cis-4-hydroxy-4-[1-(3-methyl-5-{[4-(trifluoromethyl)pyrimidin-2-yl]amino}phenyl)-1H-imidazol-4-yl]cyclohexyl)acetamide]",≤ 100 nM,–
"Cc1cc(Nc2nccc(C3CC3)n2)cc(-n2cnc(C[C@H](O)C(=O)O)c2)c1 [Example 8, (2S)-3-(1-{3-[(4-cyclopropylpyrimidin-2-yl)amino]-5-methylphenyl}-1H-imidazol-4-yl)-2-hydroxypropanoic acid]",≤ 100 nM,–
"Cc1cc(Nc2cc(C(F)(F)F)ccn2)nc(-n2cnc([C@]3(O)CC[C@H](CC(=O)O)CC3)c2)c1 [Example 13, {trans-4-hydroxy-4-[1-(4-methyl-6-{[4-(trifluoromethyl)pyridin-2-yl]amino}pyridin-2-yl)-1H-imidazol-4-yl]cyclohexyl}acetic acid]",≤ 100 nM,–
"Cc1cc(Nc2cc(C(F)(F)F)ccn2)nc(-n2cnc([C@]3(O)CC[C@@H](CC(=O)O)CC3)c2)c1 [Example 14, {cis-4-hydroxy-4-[1-(4-methyl-6-{[4-(trifluoromethyl)pyridin-2-yl]amino}pyridin-2-yl)-1H-imidazol-4-yl]cyclohexyl}acetic acid]",≤ 100 nM,0.861 nM
"Cc1cc(Nc2nccc(C(F)(F)F)n2)cc(-n2cnc([C@]3(O)CC[C@H](CC(=O)O)CC3)c2)c1 [Example 15, {trans-4-hydroxy-4-[1-(3-methyl-5-{[4-(trifluoromethyl)pyrimidin-2-yl]amino}phenyl)-1H-imidazol-4-yl]-cyclohexyl}acetic acid]",≤ 100 nM,–
"Cc1cc(Nc2nccc(C(F)(F)F)n2)cc(-n2cnc([C@]3(O)CC[C@@H](CC(=O)O)CC3)c2)c1 [Example 16, {cis-4-hydroxy-4-[1-(3-methyl-5-{[4-(trifluoromethyl)pyrimidin-2-yl]amino}phenyl)-1H-imidazol-4-yl]-cyclohexyl}acetic acid]",≤ 100 nM,1.64 nM
"COC(=O)C[C@H]1CC[C@@](O)(c2cn(-c3cc(C)cc(Nc4nccc(C(F)(F)F)n4)c3)cn2)CC1 [Example 17, Methyl {trans-4-hydroxy-4-[1-(3-methyl-5-{[4-(trifluoromethyl)pyrimidin-2-yl]amino}phenyl)-1H-imidazol-4-yl]-cyclohexyl}acetate]",≤ 100 nM,–
"COC(=O)C[C@H]1CC[C@](O)(c2cn(-c3cc(C)cc(Nc4nccc(C(F)(F)F)n4)c3)cn2)CC1 [Example 18, Methyl {cis-4-hydroxy-4-[1-(3-methyl-5-{[4-(trifluoromethyl)pyrimidin-2-yl]amino}phenyl)-1H-imidazol-4-yl]-cyclohexyl}acetate]",≤ 100 nM,–
"Cc1cc(Nc2nccc(C(F)(F)F)n2)cc(-n2cnc([C@]3(O)CC[C@](C)(C(=O)O)CC3)c2)c1 [Example 20, trans-4-hydroxy-1-methyl-4-[1-(3-methyl-5-{[4-(trifluoromethyl)-pyrimidin-2-yl]amino)-phenyl)-1H-imidazol-4-yl]cyclohexanecarboxylic acid]",≤ 100 nM,–
"CCOC(=O)C1(C)CCC(O)(c2cn(-c3cc(C)cc(Nc4nccc(C(F)(F)F)n4)c3)cn2)CC1 (stereo not drawn) [Example 22, Ethyl trans-4-hydroxy-1-methyl-4-[1-(3-methyl-5-{[4-(trifluoromethyl)pyrimidin-2-yl]amino}phenyl)-1H-imidazol-4-yl]cyclohexanecarboxylate]",≤ 100 nM,–
